# Experimental data: paper PMC10600890 (ACS Omega, 2023)
# How the values were obtained:
# [1] = In vivo mouse pharmacokinetics; conditions: male, CD-1, mouse, plasma
# [2] = Intrinsic clearance in mouse liver microsomes; format: in vitro ADME
# [3] = Metabolite ID study of 1i in mouse hepatocytes; format: in vitro ADME; conditions: 1i incubated 4 h in mouse primary hepatocytes; relative quantity by UV
# [4] = tested on: mice; test: Dose ranging study of EA tolerability in mice; format: in vivo, mouse; conditions: i.p.
# [5] = Intrinsic clearance in mouse liver S9 fraction; format: in vitro ADME; conditions: male, CD-1, mouse
# [6] = Intrinsic clearance in primary mouse hepatocytes; format: in vitro ADME; conditions: male, CD-1, mouse, cryopreserved primary hepatocytes
# [7] = Mouse liver microsomal stability, single 30 min time point; format: in vitro ADME; conditions: primary mouse liver microsomes (MLM)
SMILES,"AUC(0-t) ([1]; ip, 10 mg/kg) [ng·h/mL]","Cmax ([1]; ip, 10 mg/kg) [ng/mL]","bioavailability ([1]; ip, 10 mg/kg) [%]","Cmax ([1]; iv, 1 mg/kg) [ng/mL]","clearance ([1]; iv, 1 mg/kg) [mL/min/kg]",CLint scaled [2] [mL/min/kg],rel. (%) of peak (metabolite or parent) [3] [%],doses that resulted in clinical symptoms including death [4] [mg/kg],"half-life ([1]; ip, 10 mg/kg) [h]","AUC(0-t) ([1]; iv, 1 mg/kg) [ng·h/mL]","Vd ([1]; iv, 1 mg/kg) [L/kg]","half-life ([1]; iv, 1 mg/kg) [h]",CLint scaled [5] [mL/min/kg],CLint scaled at 1 μM [6] [mL/min/kg],parent compound remaining after 30 min [7] [%]
"CCC(=O)Nc1cc(Nc2cc(NC3CC3)n3ncc(C#N)c3n2)ccc1N1CCC[C@H](NC)C1 [Compound 1i, (S)-N-(5-((3-Cyano-7-(cyclopropylamino)pyrazolo[1,5-a]pyrimidin-5-yl)amino)-2-(3-(methylamino)piperidin-1-yl)phenyl)propionamide]",7010,4700,100,1100,36,< 24,53,–,–,–,–,–,–,–,–
"C=C(CC)C(=O)c1ccc(OCC(=O)O)c(Cl)c1Cl [EA, ethacrynic acid]",–,–,–,–,–,–,–,≥ 100,–,–,–,–,–,–,–
"CN[C@H]1CCN(c2ccc(Nc3cc(NC4CC4)n4ncc(C#N)c4n3)cc2NC(C)=O)C1 [Compound 2e, (S)-N-(5-((3-Cyano-7-(cyclopropylamino)pyrazolo[1,5-a]pyrimidin-5-yl)amino)-2-(3-(methylamino)pyrrolidin-1-yl)phenyl)acetamide]",1300,1500,53,810,69,27,–,–,1.4,250,2.67,1.2,4,69,–
CCC(=O)Nc1cc(Nc2cc(NC3CC3)n3ncc(C#N)c3n2)ccc1C [Compound 1a],–,–,–,–,–,–,–,–,–,–,–,–,–,–,40
"CN[C@H]1CCCN(c2ccc(Nc3cc(NC4CC4)n4ncc(C#N)c4n3)cc2NC(C)=O)C1 [Compound 2c, (S)-N-(5-((3-Cyano-7-(cyclopropylamino)pyrazolo[1,5-a]pyrimidin-5-yl)amino)-2-(3-(methylamino)piperidin-1-yl)phenyl)acetamide]",770,670,40,350,84,< 24,–,–,1.5,200,5.07,1.8,1,132,–
